Source: patent US9670242B2, “Tetracyclic anthraquinone derivatives” (Tianjin Hemay Bio-Tech Co., Ltd, priority 2012, dated 2017)

Columns and labels:
B16 cells = experiment: B16 cell growth inhibition test (MTT assay); format: cell-based, mouse; conditions: 72 h
Method: B16 Cell Growth Inhibition Test (MTT Assay)
(§1) II. Reagents and Consumable Materials
Culture medium: 90% RPMI1640+10% FBS (fetal calf serum); Pancreatin (0.25% (w/v) solution was formulated with PBS, 0.53 mM of EDTA was added in the formulation); PBS; 96-well culture plate.
(§2) 1. A plate (10 cm) of cells in logarithmic growth phase that were normally cultured was collected;
(§3) 2. The culture solution was sucked out. The plate was washed with 5 mL of PBS once or twice;
(§4) 3. PBS was sucked out. 1.5 mL of 0.25% pancreatin was added to the plate to infiltrate the cells for 1 min;
4. The culture plate was placed in an incubator. Digestion was carried out for about 1 min at 37° C.;
(§5) 5. 3 mL of complete culture solution was added to the culture plate to stop the digestion. The cells were carefully scoured with micropipette (1 mL) to give a uniform cell suspension. The suspension was implanted into a 96-well cell culture disc by 2500 cells/100 μL per well. The culture plate was incubated overnight under 5% CO2 at 37° C. In day 2, 100 μL of culture solution comprising a compound was added in each well. The plate was further incubated for 72 h under 5% CO2 at 37° C.;
(§6) 6. The culture solution was sucked out;
7. 100 μl of serum-free culture solution containing 0.5 mg/mL MTT was added in each well. The plate was incubated for 3 h;
(§7) 8. The culture solution was carefully sucked out;
(§8) 9. 100 μL of DMSO was added in each well and vibrated to dissolve;
(§9) 10. OD values were determined at 490 nM.
(§10) IV. Results and Treatments
(§11) 1. Calculation of Relative Inhibition Ratio The inhibition ratio of a compound on cell growth=(PC−n)/(PC−NC)×100%
(§12) PC: OD values of cells after normal growth in control wells without a compound;
(§13) n: OD values of cells after growth in test wells with a compound;
(§14) NC: Background OD values of blank wells without a compound and cells.

A431 cells = experiment: A431 cell growth inhibition test (MTT assay); format: cell-based, human; conditions: 72 h
Method: A431 Cell Growth Inhibition Test (MTT Assay)
as §1
Culture medium: 45% DMEM+45% F12+10% FBS (fetal calf serum); Pancreatin (0.25% (w/v) solution was formulated with PBS, 0.53 mM of EDTA was added in the formulation); PBS; 96-well culture plate.
as §2, §3, §4
(§15) 4. The culture plate was placed in an incubator. Digestion was carried out for about 5 min at 37° C.;
as §5, §6
(§16) 7. 100 μL of serum-free culture solution containing 0.5 mg/mL MTT was added in each well. The plate was incubated for 3 h;
as §7, §8, §9, §10, §11, §12, §13, §14

A375 cells = experiment: A375 cell growth inhibition test (MTT assay); format: cell-based, human; conditions: 72 h
Method: A375 Cell Growth Inhibition Test (MTT Assay)
as §1
Culture medium: 90% DMEM+10% FBS (fetal calf serum); Pancreatin (0.25% (w/v) solution was formulated with PBS, 0.53 mM of EDTA was added in the formulation); PBS; 96-well culture plate.
as §2, §3, §4, §15
as §5, with “ml)” for “mL)”, “3000” for “2500”
as §6, §16, §7, §8, §9, §10, §11, §12, §13, §14

22Rv1 cells = experiment: 22Rv1 cell growth inhibition test (SRB assay); format: cell-based, human; conditions: growth inhibition at 222 nM, 73 h
Outline: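 Human prostate cancer 22Rv1 cells seeded at 7000 cells/well, incubated overnight, then exposed to compound for 73 h at 37° C, 5% CO2. TCA-fixed cells stained with SRB, dye dissolved in 10 mM Tris, OD read at 570 nm. Inhibition = (PC−n)/(PC−NC)×100% against untreated and cell-free blank wells.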

NCI-H446 cells = experiment: NCI-H446 cell growth inhibition test (MTT assay); format: cell-based, human; conditions: growth inhibition at 222 nM, 70 h
Outline: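 Human small cell lung cancer cells in RPMI-1640 with 10% FBS were seeded at 4000 per well and treated with compound for 70 h at 37° C, 5% CO2. MTT at 0.5 mg/mL was added for 3 h, formazan was dissolved in DMSO and OD read at 490 nm. Inhibition ratio was calculated against untreated and blank wells.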

Structure (SMILES)	IC50 (B16 cells)	IC50 (A431 cells)	IC50 (A375 cells)	Inhibition Ratio (%) (22Rv1 cells)	Inhibition Ratio (%) (NCI-H446 cells)
COc1cccc2c1C(=O)c1c(O)c3c(c(O)c1C2=O)CC(O)(C(=O)COC(=O)CCC(=O)O)CC3OC1CC(n2cccc2)C(O)C(C)O1 (stereo not shown) [Compound A, 3′-pyrrolyldoxorubicin-14-oxo-succinic acid monoester, reference compound]	32 nM	68 nM	207 nM	–	–
COc1cccc2c1C(=O)c1c(O)c3c(c(O)c1C2=O)CC(O)(C(=O)COC(=O)CCC(=O)NCCOCCO)CC3OC1CC(n2cccc2)C(O)C(C)O1 (stereo not shown) [Example 62]	3 nM	–	–	57%	64.6%
CC(=O)O.COc1cccc2c1C(=O)c1c(O)c3c(c(O)c1C2=O)CC(O)(C(=O)COC(=O)CCC(=O)NCCCN1CCN(C)CC1)CC3O[C@H]1C[C@H](n2cccc2)[C@H](O)[C@H](C)O1 (stereo partly drawn) [Example 81, 10-((3′-(pyrrol-1-yll)-2′,3′,6′-trideoxy-alphal-l-lyxo-hexylpyranyl)oxy)-7,8,9,10-tetrahydro-6,8,11-trihydroxy-13-oxo-14-(4-((3-(4-methylpiperazin-1-yl)propyl)amino)-4-oxo-butyrato)-1-methoxy-5,12-naphthalenedione acetate]	–	42 nM	67 nM	56.5%	56.8%
